Source: patent US20250313553A1, “ANNULATED 2-AMINO-3-CYANO THIOPHENES AND DERIVATIVES FOR THE TREATMENT OF CANCER” (Boehringer Ingelheim Int'l GmbH Corp., priority 2021, published 2025)
pIC50: −log10 of the molar value.

How the values were obtained:
[1] = target: T1, KRAS (G13D) and SOS1 (Homo sapiens, UniProt P01116, C118S/G13D); assay: KRAS::SOS1 AlphaScreen binding assay, KRAS G13D
T1 construct: KRAS (G13D) 1-169, N-terminal 6His-tag for purification; 6His (N, cleaved yes); TEV cleavage site
T1 sequence (P01116 1-169 isoform P01116-2 G13D/C118S): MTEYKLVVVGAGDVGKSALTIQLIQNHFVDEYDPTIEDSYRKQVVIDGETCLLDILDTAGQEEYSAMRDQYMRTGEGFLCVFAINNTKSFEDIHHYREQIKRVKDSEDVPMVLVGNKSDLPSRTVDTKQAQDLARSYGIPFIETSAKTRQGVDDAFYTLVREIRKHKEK
Source text: This assay can be used to examine the potency with which compounds according to the invention binding to (mutated) KRAS inhibit the protein-protein interaction between SOS1 and (mutated) KRAS e.g., KRAS WT, KRAS G12C, KRAS G12D, KRAS G12V or KRAS G13D. […] Low IC50 values in this assay setting are indicative of strong inhibition of protein-protein interaction between SOS1 and KRAS:
These assays measure the inhibitory effect of compounds on KRAS mutant protein-protein interactions using the Alpha Screen technology by Perkin Elmer. […]
Plates are kept at room temperature in a darkened incubator. After an additional 60 minutes incubation time the signal is measured in a PerkinElmer Envision HTS Multilabel Reader using the AlphaScreen specs from PerkinElmer. […]
As internal control known inhibitors of KRAS mutant::SOS1 interaction can be measured on each compound plate. […]

[2] = tested on: NCI-H358 cells; assay: NCI-H358 CTG proliferation assay (120 h), assay 1; type: cell-based; details: Homo sapiens, 96 well, 2000 cells per well
Experimental: NCI-H358 cells (ATCC No. CRL-5807) are dispensed into white bottom opaque 96 well plates (Perkin Elmer cat no. 5680) at a density of 2000 cells per well in 100 μL RPMI-1640 ATCC-Formulation (Gibco #A10491)+10% FCS (fetal calf serum) (assay 1) or into black 384-well plates, flat and clear bottom (Greiner, PNr. 781091) at a density of 200 cells per well in 60 μl RPMI-1640 ATCC-Formulation (Gibco #A10491)+10% FCS (fetal calf serum) (assay 2). […] Compounds (10 mM stock in DMSO) are added at logarithmic dose series using the HP Digital Dispenser D300 (Tecan) (assay 1) or the ECHO acoustic liquid handler system (Beckman Coulter) (assay 2), normalizing for added DMSO and including DMSO controls. For the T0 time point measurement, untreated cells are analyzed at the time of compound addition. Plates are incubated for 120 h, and cell viability is measured using CellTiter-Glo luminescent cell viability reagent (Promega product code G7570). Viability (stated as percent of control) is defined as relative luminescence units RLU of each well divided by the RLU of cells in DMSO controls. IC50 values are determined from viability measurements by non-linear regression using a four-parameter model.

[3] = tested on: GP2D cells; assay: GP2D proliferation assay (120 h); type: cell-based; details: colorectal cancer, G12D
Experimental: GP2D cells (ATCC No. CRL-5807) are dispensed into white 384-well plates, flat and white bottom(Perkin Elmer, 6007680) at a density of 500 cells per well in 40 μl DMEM (Sigma, D6429)+1×GlutaMAX (Gibco, 35050038)+10% FCS (fetal calf serum). […] Compounds (10 mM stock in DMSO) are added at logarithmic dose series using the HP Digital Dispenser D300 (Tecan), including DMSO controls and normalizing for added DMSO. For the T0 time point measurement, untreated cells are analyzed at the time of compound addition. Plates are incubated for 120 h, and cell viability is measured using CellTiter-Glo luminescent cell viability reagent (Promega product code G7570). Viability (stated as percent of control) is defined as relative luminescence units RLU of each well divided by the RLU of cells in DMSO controls. IC50 values are determined from viability measurements by non-linear regression using a four-parameter model.

C[C@H]1CN(C)CCN1c1cccc(-c2noc([C@@]3(C)CCCc4sc(N)c(C#N)c43)n2)n1 [Example V-1]
pIC50 [1]: 6.03

C[C@H](Oc1cccc(-c2noc([C@@]3(C)CCCc4sc(N)c(C#N)c43)n2)n1)[C@@H]1CCCN1C [Example V-8]
pIC50 [1]: 6.75

CC(C)N1CCCN(c2nccc(-c3noc([C@@]4(C)CCCc5sc(N)c(C#N)c54)n3)n2)[C@@H](C)C1 [Example V-9]
pIC50 [2]: 6.16

C[C@H](Oc1nccc(-c2noc([C@@]3(C)CCCc4sc(N)c(C#N)c43)n2)n1)[C@@H]1CCCN1C [Example V-10]
pIC50 [2]: 5.27

C[C@H](Oc1ccnc(-c2noc([C@@]3(C)CCCc4sc(N)c(C#N)c43)n2)n1)[C@@H]1CCCN1C [Example V-11]
pIC50 [3]: 6.82
